# Test results from US6861529B2, “Cycloalkypyrrole-3-carboxylic acid derivatives and heterocycloalkylpyrrole-3-carboxylic acid derivatives” (Pfizer Inc, priority 2001, dated 2005).
# Biological target: benzodiazepine site of the GABAA receptor
# Assay: Binding assay (3H-Ro15-1788 displacement, rat cortical tissue homogenate)
# Conditions: 0.5 nM 3H-Ro15-1788 [3H-Flumazenil], 30 min at 4° C., Cheng-Prussof equation
row,SMILES,Ki [nM]
1,"CC1CCc2[nH]cc(C(=O)Nc3ccccn3)c2C(=O)C1 (stereo not drawn) [Example 2, 6-Methyl-4-oxo-1,4,5,6,7,8-hexahydro-cydohepta[b]pyrrole-3-carboxylic acid pyridin-2-ylamide]",2
2,"CC(C)C1CCc2[nH]cc(C(=O)Nc3ccccn3)c2C(=O)C1 (stereo not drawn) [Example 3, 6-Isopropyl-4-oxo-1,4,5,6,7,8-hexahydro-cyclohepta[b]pyrrole-3-carboxylic acid pyridin-2-ylamide]",1
3,"O=C(Nc1ccccn1)c1c[nH]c2c1C(=O)CC(c1ccc(F)cc1)CC2 (stereo not drawn) [Example 4, 6-(4-Fluoro-phenyl)-4-oxo-1,4,5,6,7,8-hexahydrocyclohepta[b]pyrrole-3-carboxylic acid pyridin-2-ylamide]",7
4,"COc1ccc(C2CCc3[nH]cc(C(=O)Nc4ccccn4)c3C(=O)C2)cc1F (stereo not drawn) [Example 5, 6-(3-Fluoro-4-methoxy-phenyl)-4-oxo-1,4,5,6,7,8-hexahydro-cyclohepta[b]pyrrole-3carboxylic acid pyridin-2-ylamide]",8
5,"O=C(Nc1ccccn1)c1c[nH]c2c1C(=O)C1CN(Cc3ccccc3)CC1CC2 (stereo not drawn) [Example 6, 6-Benzyl-4-oxo-4,4a,5,6,7,7a,8,9-octahydro-1H-1,6-diaza-cyclopenta[f]azulene-3-carboxylic acid pyridin-2-ylamide]",4
6,"O=C(Nc1ccccn1)c1c[nH]c2c1C(=O)C1CNCC1CC2 (stereo not drawn) [Example 7, 4-Oxo-4,4a,5,6,7,7a,8,9-octahydro-1H-1,6-diaza-cyclopenta[f]azulene-3-carboxylic acid pyridin-2-ylamide]",7
7,"CN1CC2CCc3[nH]cc(C(=O)Nc4ccccn4)c3C(=O)C2C1 (stereo not drawn) [Example 8, 6-Methyl-4-oxo-4,4a,5,6,7,7a,8,9-octahydro-1H-1,6-diaza-cyclopenta[f]azulene-3-carboxylic acid pyridin-2-ylamide]",8
8,"CN(C)CC1CCc2[nH]cc(C(=O)Nc3ccccn3)c2C(=O)C1 (stereo not drawn) [Example 9, 6-Dimethylaminomethyl-4-oxo-1,4,5,6,7,8-hexahydro-cyclohepta[b]pyrrole-3-carboxylic acid pyridin-2-ylamide]",23
9,"O=C(Nc1ccccn1)C1C=NC2=C1C(Nc1ccccn1)CCCC2 (stereo not drawn) [Example 10, 4-(Pyridin-2-ylamino)-3,4,5,6,7,8-hexahydro-cyclohepta[b]pyrrole-3-carboxylic acid pyridin-2-ylamide]",24
